Molecules are shown by their SMILES.

One test concerns the target T1, hepsin (Homo sapiens, UniProt P05981).
T1 construct: gene HPN
The test is described as follows: fluorescent kinetic enzyme inhibition assay.

In another test the target is T2, matriptase (Homo sapiens, UniProt Q9Y5Y6).
T2 construct: gene ST14; recombinant catalytic domain (#3946-SEB, R&D Systems)
T2 sequence (Q9Y5Y6 615-855 limits assumed): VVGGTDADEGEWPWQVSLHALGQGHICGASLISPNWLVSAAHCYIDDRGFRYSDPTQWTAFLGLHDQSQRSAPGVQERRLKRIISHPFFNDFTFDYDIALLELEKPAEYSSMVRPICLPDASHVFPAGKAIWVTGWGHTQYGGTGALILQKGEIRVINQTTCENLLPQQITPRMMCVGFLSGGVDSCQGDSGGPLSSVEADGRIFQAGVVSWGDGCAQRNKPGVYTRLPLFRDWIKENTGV
The test is described as follows: fluorescent kinetic enzyme inhibition assay. The class given is biochemical.

T1 sequence (P05981 45-162 limits assumed): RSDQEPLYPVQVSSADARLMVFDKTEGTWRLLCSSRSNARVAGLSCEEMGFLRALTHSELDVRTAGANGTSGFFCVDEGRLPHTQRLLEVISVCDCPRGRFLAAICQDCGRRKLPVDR
T1 sequence (P05981 163-417 limits assumed): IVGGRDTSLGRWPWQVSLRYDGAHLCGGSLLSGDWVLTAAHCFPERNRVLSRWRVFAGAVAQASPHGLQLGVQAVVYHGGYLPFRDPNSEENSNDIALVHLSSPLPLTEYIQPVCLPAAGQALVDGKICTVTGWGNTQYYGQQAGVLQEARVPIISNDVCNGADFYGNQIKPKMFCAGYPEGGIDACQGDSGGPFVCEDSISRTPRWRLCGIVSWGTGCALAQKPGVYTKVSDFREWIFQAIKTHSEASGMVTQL

One may read the Ki as the equilibrium dissociation constant of an inhibitor or competing ligand from its target. A higher Ki goes with a looser hold on the target. Take `N=C(N)NCCC[C@H](NC(=O)[C@H](CC(N)=O)NC(=O)OCC1c2ccccc2-c2ccccc21)C(=O)c1nc2ccccc2s1` [ZFH7185-3]: the figures for the Ki at hepsin and on matriptase were 1.7 nM and 106 nM, respectively.
Regarding `N=C(N)NCCC[C@H](NC(=O)CNC(=O)OCC1c2ccccc2-c2ccccc21)C(=O)c1nc2ccccc2s1` [ZFH7185-8], the results for the Ki on hepsin and at matriptase were 831 nM and 0.13 nM, respectively.

The values are drawn from paper PMC6320337, “Hepatocyte growth factor activator inhibitor-2 stabilizes Epcam and maintains epithelial organization in the mouse intestine” (Communications Biology, 2019).
